We go through 2 molecules from ChEMBL document CHEMBL3621181, “Prokineticin Receptor Modulators May Potentially Treat Psychiatric and Neurological Disorders” (ACS Med Chem Lett, 2015).

As a reminder, the pIC50 is the IC50 on a negative log10 scale, so that one unit is a factor of ten.

The assay concerns the target Prokineticin receptor 1 (Homo sapiens, UniProt Q8TCW9). Nature of the assay: Antagonist activity at human PKR1 expressed in rat RBL2H3 cells assessed as inhibition of PK1-stimulated intracellular calcium release incubated for 10 mins prior to PK1 stimulation by FLIPR assay. The format is functional, cell-based, RBL-2H3. For orientation: A change in cytosolic calcium serves as a functional read-out for many receptors and channels.

pIC50: −log10 of the molar value.

Sequence of Prokineticin receptor 1 (Q8TCW9 whole entry): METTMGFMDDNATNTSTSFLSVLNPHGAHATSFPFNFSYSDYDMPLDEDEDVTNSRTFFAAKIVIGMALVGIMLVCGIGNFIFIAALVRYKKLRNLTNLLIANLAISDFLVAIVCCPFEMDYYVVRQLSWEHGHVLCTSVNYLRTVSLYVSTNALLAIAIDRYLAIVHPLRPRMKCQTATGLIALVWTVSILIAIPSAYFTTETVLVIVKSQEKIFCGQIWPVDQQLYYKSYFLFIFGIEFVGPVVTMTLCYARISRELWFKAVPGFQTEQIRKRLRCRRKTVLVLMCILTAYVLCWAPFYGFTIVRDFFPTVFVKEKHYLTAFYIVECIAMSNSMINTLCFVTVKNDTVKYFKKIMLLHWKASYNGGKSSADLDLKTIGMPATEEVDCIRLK

In the case of `CC(C)n1c(C2CCCN(C(=O)c3ccnc(N(C)C)c3)C2)nc2ccccc21` (configuration not stated), the pIC50 was 6.49.
The value for `COC1(c2ncc(Cl)cc2C)CCCN(C(=O)c2cn(C)nc2N)C1` (configuration not stated) was less than 5.05.
